From patent US10760110B2, “Antibiotic testing and screening system” (priority 2017, dated 2020)
≈ marks a conversion by molar mass, not a printed value. Where two headings read alike, the source gives them in different places.

Legend:
[1] = tested on: A. baumannii KW1 strains with β-lactamase plasmids; assay: Etest MIC of β-lactams, extended-spectrum β-lactamase, AmpC β-lactamase or carbapenemase (Table 18); type: cell-based, Acinetobacter baumannii
Procedure: (§1) DNA fragments of the resistance genes along with their flanking regions were amplified from clinical plasmids via PCR with specific primer pairs. The resulting PCR fragments were digested and then cloned into the plasmid pYMAb5 or pYMAb5Tc. The resulting plasmids were then transformed into A. baumannii KW1 via electroporation.
(§2) The MICs of antibiotics were determined using the Etest (Biodisk AB, Sweden) according to the manufacturer's instructions. The MICs from the Etest, which fall between standard two-fold dilutions, were rounded up to the next highest two-fold value. The MICs of ceftazidime and cefotaxime against K. pneumoniae NVT1001 harbouring the pACYC177 plasmid with blaOXA-48 were further determined using a broth microdilution test according to the recommendations of the CLSI,^25 and the results were interpreted according to the breakpoints established by the CLSI in 2017.^25 Meanwhile, due to the lack of CLSI breakpoints in 2016 and 2017, the results for cephalothin were interpreted according to the breakpoints established by the CLSI in 2015,^26 and the results for moxifloxacin were interpreted according to the breakpoints established by the EUCAST in 2017.^27

[2] = tested on: A. baumannii KW1 and its AdeR/AdeS mutants; assay: Etest MIC, AdeABC overexpression via AdeR or AdeS mutation (Table 16); type: cell-based, Acinetobacter baumannii
Excerpt: DNA fragments of the entire adeR, adeS, gyrA and parC along with their flanking regions were amplified from A. baumannii KW1 using PCR with specific primer pairs and then cloned into plasmid pUT-KB. The QuikChange site-directed mutagenesis kit (Stratagene) was used to generate mutations in the adeR, adeS, gyrA and parC genes in the plasmids using the methods described by the manufacturer. For homologous recombination, plasmids containing mutations in the adeR, adeS, gyrA or parC gene were transformed into E. coli S17-1 λpir^23 via electroporation and mobilized into A. baumannii KW1 via conjugation. Single-crossover strains were selected from Luria-Bertani (LB) plates supplemented with cefotaxime (1 μg/ml) and kanamycin ([…]), as the growth of non-A. baumannii contaminants is suppressed by cefotaxime (1 μg/ml). The kanamycin-resistant transconjugants were selected and the insertion of plasmids was verified via PCR. After incubation in 20 ml brain heart infusion (BHI) broth for 6 hours in the absence of kanamycin at 37° C., the fully grown cultures were spread onto LB plates supplemented with 10% sucrose. After the double crossover occurred, the sucrose-resistant and kanamycin-susceptible colonies were selected, and the gene mutations were confirmed via PCR.
as §2

[3] = tested on: K. pneumoniae NVT1001 and ΔramR strains with tet resistance gene plasmids; assay: Etest MIC of tetracyclines, AcrAB-TolC overexpression (ΔramR) and/or tet resistance gene (Table 14); type: cell-based, Klebsiella pneumoniae; details: Klebsiella pneumoniae
Procedure: DNA fragments of the resistance genes along with their flanking regions were amplified from clinical plasmids via PCR with specific primer pairs. The resulting PCR fragments were digested and then cloned into the plasmid pACYC177 or pACYC184. The resulting plasmids were then transformed into K. pneumoniae strain NVT1001 via electroporation. The recombinant bacteria were plated onto LB agar plates containing kanamycin (50 mg/L) or chloramphenicol (50 mg/L), and the presence of the cloned gene was confirmed via PCR and DNA sequencing.
as §2

[4] = tested on: K. pneumoniae NVT1001 ΔramRΔompK35/36 mutant and its revertants; assay: Etest MIC, ΔramRΔompK35/36 mutant and its revertants (Table 7); type: cell-based; details: Klebsiella pneumoniae
[5] = tested on: A. baumannii KW1 strains with tet resistance gene plasmids; assay: Etest MIC of tetracyclines, tet resistance gene (Table 20); type: cell-based, Acinetobacter baumannii; details: for MIC: Acinetobacter baumannii; for increase in the MIC: production of Tet(A), Tet(B) or Tet(C)
Procedure: as §1, §2

[6] = tested on: K. pneumoniae NVT1001 and its ΔompK35/36 and/or ΔramR mutants; assay: Etest MIC, OmpK35/36 loss and AcrAB-TolC overexpression (ΔramR) strains (Table 6); type: cell-based, Klebsiella pneumoniae; details: Klebsiella pneumoniae
How it was run: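 Etest MICs against K. pneumoniae NVT1001 and its ΔompK35/36 and/or ΔramR mutants, rounded up to the next two-fold value. For NVT1001 carrying pACYC177-blaOXA-48, ceftazidime and cefotaxime MICs by CLSI broth microdilution, interpreted with CLSI 2017 breakpoints.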

[7] = NVT1001, Tet(A) on pACYC177, read-out: MIC
[8] = NVT1001, Tet(B) on pACYC177, read-out: MIC
[9] = NVT1001, Tet(C) on pACYC177, read-out: MIC
[10] = NVT1001, Tet(D) on pACYC177, read-out: MIC
[11] = NVT1001, Tet(M) on pACYC177, read-out: MIC

CC(C)(O/N=C(\C(=O)N[C@@H]1C(=O)N2C(C(=O)[O-])=C(C[n+]3ccccc3)CS[C@H]12)c1csc(N)n1)C(=O)O [CAZ]
MIC ([1]; KW1, no supplemental plasmid): 4 mg/L | MIC ([1]; KW1 with ADC-30 on pYMAb5): >256 mg/L | MIC ([1]; KW1 with CTX-M-15 on pYMAb5): >256 mg/L | MIC ([1]; KW1 with IMP-1 on pYMAb5): 48 mg/L | MIC ([1]; KW1 with NDM-1 on pYMAb5): >256 mg/L | MIC ([1]; KW1 with OXA-23 on pYMAb5): 3 mg/L | MIC ([1]; KW1 with OXA-58 on pYMAb5): 3 mg/L | MIC ([1]; KW1 with OXA-66 on pYMAb5): 3 mg/L | MIC ([1]; KW1 with OXA-72 on pYMAb5): 3 mg/L | MIC ([1]; KW1 with VEB-3 on pYMAb5): >256 mg/L | MIC ([1]; KW1 with VIM-1 on pYMAb5): >256 mg/L | MIC ([1]; KW1 with shuttle vector pYMAb5): 3 mg/L | MIC ([2]; A91V mutant (AdeR)): 16 mg/L | MIC ([2]; A94V mutant (AdeS)): 8 mg/L | MIC ([2]; D20N mutant (AdeR)): 12 mg/L | MIC ([2]; G30D mutant (AdeS)): 8 mg/L | MIC ([2]; KW1): 4 mg/L | MIC ([2]; P116L mutant (AdeR)): 8 mg/L | MIC ([2]; R152K mutant (AdeS)): 8 mg/L | MIC ([2]; T153M mutant (AdeS)): 8 mg/L

CN(C)c1ccc(O)c2c1C[C@H]1C[C@H]3[C@H](N(C)C)C(O)=C(C(N)=O)C(=O)[C@@]3(O)C(O)=C1C2=O [Minocycline]
MIC [3, 7]: 32 mg/L | MIC [3, 8]: 32 mg/L | MIC [3, 9]: 4 mg/L | MIC [3, 10]: 128 mg/L | MIC [3, 11]: 32 mg/L | MIC ([3]; NVT1001, no supplemental plasmid, read-out: MIC): 4 mg/L | MIC ([3]; ΔramR, Tet(A) on pACYC177): > 256 mg/L | MIC ([3]; ΔramR, Tet(B) on pACYC177): > 256 mg/L | MIC ([3]; ΔramR, Tet(C) on pACYC177): 64 mg/L | MIC ([3]; ΔramR, Tet(D) on pACYC177): > 256 mg/L | MIC ([3]; ΔramR, Tet(M) on pACYC177): > 256 mg/L | MIC ([3]; ΔramR, no supplemental plasmid): 64 mg/L | MIC ([4]; ΔramRΔompK35/36::ompK35/36 revertant): 128 mg/L | MIC ([4]; ΔramRΔompK35/36::ompK35 revertant): 128 mg/L | MIC ([4]; ΔramRΔompK35/36::ompK36 revertant): 128 mg/L | MIC ([4]; ΔramRΔompK35/36::ramR revertant): 4 mg/L | MIC ([4]; ΔramRΔompK35/36::ramR::ompK35/36 revertant): 4 mg/L | MIC ([4]; ΔramRΔompK35/36::ramR::ompK35 revertant): 4 mg/L | MIC ([4]; ΔramRΔompK35/36::ramR::ompK36 revertant): 4 mg/L | MIC ([4]; ΔramRΔompK35/36 mutant): 128 mg/L | MIC ([5]; KW1, Tet(A) on pYMAb5): 1.5 mg/L | MIC ([5]; KW1, Tet(B) on pYMAb5): 1.5 mg/L | MIC ([5]; KW1, Tet(M) on pYMAb5): 2 mg/L | MIC ([5]; KW1, no supplemental plasmid): 0.38 mg/L | MIC ([5]; KW1 with shuttle vector pYMAb5): 0.25 mg/L | increase in the MIC [5]: 4 fold | MIC ([6]; WT, NVT1001, read-out: MIC): 4 mg/L (≈ 8.74 µM) | MIC ([6]; Δ35, ΔompK35 mutant): 4 mg/L (≈ 8.74 µM) | MIC ([6]; Δ35/36, ΔompK35/36 mutant): 4 mg/L (≈ 8.74 µM) | MIC ([6]; Δ36, ΔompK36 mutant): 4 mg/L (≈ 8.74 µM) | MIC ([6]; ΔramR mutant): 64 mg/L (≈ 140 µM) | MIC ([6]; ΔramRΔ35, ΔramRΔompK35 mutant): 128 mg/L (≈ 280 µM) | MIC ([6]; ΔramRΔ35/36, ΔramRΔompK35/36 mutant): 128 mg/L (≈ 280 µM) | MIC ([6]; ΔramRΔ36, ΔramRΔompK36 mutant): 128 mg/L (≈ 280 µM)

CN(C)[C@@H]1C(O)=C(C(N)=O)C(=O)[C@@]2(O)C(O)=C3C(=O)c4c(O)cccc4[C@@](C)(O)[C@H]3C[C@@H]12 [Tetracycline, tetracycline]
MIC [3, 7]: > 256 mg/L | MIC [3, 8]: > 256 mg/L | MIC [3, 9]: 16 mg/L | MIC [3, 10]: > 256 mg/L | MIC [3, 11]: 16 mg/L | MIC ([3]; ΔramR, Tet(A) on pACYC177): > 256 mg/L | MIC ([3]; ΔramR, Tet(B) on pACYC177): > 256 mg/L | MIC ([3]; ΔramR, Tet(C) on pACYC177): 256 mg/L | MIC ([3]; ΔramR, Tet(D) on pACYC177): > 256 mg/L | MIC ([3]; ΔramR, Tet(M) on pACYC177): 128 mg/L | MIC ([2]; Acinetobacter baumannii, A91V mutant (AdeR)): 12 mg/L | MIC ([2]; Acinetobacter baumannii, A94V mutant (AdeS)): 6 mg/L | MIC ([2]; Acinetobacter baumannii, D20N mutant (AdeR)): 8 mg/L | MIC ([2]; Acinetobacter baumannii, G30D mutant (AdeS)): 8 mg/L | MIC ([2]; Acinetobacter baumannii, KW1, read-out: MIC): 3 mg/L | MIC ([2]; Acinetobacter baumannii, P116L mutant (AdeR)): 6 mg/L | MIC ([2]; Acinetobacter baumannii, R152K mutant (AdeS)): 6 mg/L | MIC ([2]; Acinetobacter baumannii, T153M mutant (AdeS)): 8 mg/L | MIC ([5]; KW1, Tet(A) on pYMAb5): 128 mg/L | MIC ([5]; KW1, Tet(B) on pYMAb5): > 256 mg/L | MIC ([5]; KW1, Tet(M) on pYMAb5): 48 mg/L | MIC ([5]; KW1, no supplemental plasmid): 3 mg/L | MIC ([5]; KW1 with shuttle vector pYMAb5): 3 mg/L | increase in the MIC [5]: 4 fold | MIC ([6]; Δ36, ΔompK36 mutant): 2 mg/L (≈ 4.5 µM)
